Results on 5 molecules are retold here after US8318105B2, “Systems and methods for biomarker analysis” (priority 2010, dated 2012).

The test system of experiment [1] is peroxidase. The experiment in a line: Peroxidase assay in saliva (Amplex Red). Conditions: compound prepared at 500 ppm, 30 minutes, FIGS. 26-29. In kind it is biochemical. How it is done: To determine the effect of various GRAS compounds as inhibitors of peroxidase activity, a standard assay using Amplex® Red (Life Technologies), which releases a fluorescent oxidation product.
The test compounds, such as GRAS materials or cocktails of same, were prepared at a concentration of 500 ppm in distilled water. For the assay, 50 μl samples of test compounds were mixed with 20-30 μl of saliva (either “pooled” or “unpooled”) prior to the addition of Amplex® Red. […] Reactions were allowed to run for 30 minutes during these assays.

In experiment [2] the target is T1, α-amylase (Homo sapiens, UniProt P0DUB6).
T1 sequence (P0DUB6 16-511): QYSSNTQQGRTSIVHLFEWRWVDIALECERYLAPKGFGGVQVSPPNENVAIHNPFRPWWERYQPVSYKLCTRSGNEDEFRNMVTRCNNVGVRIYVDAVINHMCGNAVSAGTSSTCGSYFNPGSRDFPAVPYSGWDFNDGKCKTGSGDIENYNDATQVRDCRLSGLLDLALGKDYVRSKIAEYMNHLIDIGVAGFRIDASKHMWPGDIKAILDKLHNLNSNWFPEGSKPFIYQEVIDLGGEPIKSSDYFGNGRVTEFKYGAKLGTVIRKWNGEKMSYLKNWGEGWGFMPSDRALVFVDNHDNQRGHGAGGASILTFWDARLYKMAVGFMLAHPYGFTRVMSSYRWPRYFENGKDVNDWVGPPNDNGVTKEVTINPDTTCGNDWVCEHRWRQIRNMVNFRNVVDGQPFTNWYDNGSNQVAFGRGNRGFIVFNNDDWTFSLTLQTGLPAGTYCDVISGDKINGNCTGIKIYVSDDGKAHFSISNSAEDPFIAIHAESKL
The experiment in a line: α-Amylase inhibition saliva screening (chromogenic substrate, absorbance 405 nm). Particulars: test compound prepared at 5,000 ppm, 37° C.; for absorbance at 405 nm, single readings: four replicate readings. In kind it is biochemical. The source says: Further details of these five compounds may also be seen in Table 4.

The test system of experiment [3] is protease. Particulars: natural protease inhibitors from food; cited from earlier work.

Several values for one entry are separate records, joined by “and”; a condition that tells them apart may be missing. Equal entries are not always repeated.

With `Cn1c(=O)c2c(ncn2C)n(C)c1=O` [CDI #33, Caffeine], the peroxidase inhibition result in experiment [1] is given as “significant peroxidase inhibition capabilities”.
Still for that read-out and setting: the same measure for `COc1ccc(O)c(C(C)(C)C)c1` [CDI-039, 3-tert--butyl-hydroxyanisole]: “significant peroxidase inhibition capabilities”.
For “Aluminum potassium sulfate dodecahydrate [CDI-42]”, the “Ave (absorbance at 405 nm)” value in experiment [2] (0 min) is 0.92. Also, the “absorbance at 405 nm, single readings” value was 0.80 and 1.13 and 0.90 and 0.84 in experiment [2] (0 min); 1.65 and 2.15 and 1.80 and 1.81 in experiment [2] (5 min); 2.37 and 2.38 and 2.25 and 2.17 in experiment [2] (15 min). Besides, the peroxidase inhibition entry in experiment [1] is “significant peroxidase inhibition capabilities”.
On to Aluminum sulfate hydrate [CDI-34], for which the “Ave (absorbance at 405 nm)” value in experiment [2] (0 min) stood at 0.40; in experiment [2] (5 min) it was 0.50; in experiment [2] (15 min) it was 0.56. Further, the “absorbance at 405 nm, single readings” value in experiment [2] (0 min, sulfate hydrate) was 0.40 (2×) and 0.36 and 0.45; in experiment [2] (5 min, sulfate hydrate), 0.49 and 0.50 (2×) and 0.52; in experiment [2] (15 min, sulfate hydrate), 0.53 and 0.61 and 0.54 and 0.56.

B1: Soybeans: primary soybean protease inhibitor, 20.7-22.3 kDa (protein, UniProt P01070 25-205, looked up)
Trypsin inhibitor A: DFVLDNEGNPLENGGTYYILSDITAFGGIRAAPTGNERCPLTVVQSRNELDKGIGTIISSPYRIRFIAEGHPLSLKFDSFAVIMLCVGIPTEWSVVEDLPEGPAVKIGENKDAMDGWFRLERVSDDEFNNYKLVFCPQQAEDDKCGDIGISIDHDDGTRRLVVSKNKPLVVQFQKLDKESL
Take B1: the Inhibitory power in experiment [3] is listed as 1.2 times times weight.
